Laboratory results taken from patent publication US20140093513A1, “METHODS OF LOWERING PROPROTEIN CONVERSATE SUBTILISIN/KEXIN TYPE 9 (PCSK9)” (Catabasis Pharmaceuticals, Inc., priority 2012, published 2014).

System: PCSK9
Assay: PCSK9 secretion assay in HepG2 cells (PCSK9 ELISA)
Assay type: cell-based
Conditions: HepG2 cells, 16 hours incubation, at least 6 concentrations
Experimental: HepG2 cells (from ATCC, Catalog no. HB-8065) were maintained in DMEM (Invitrogen) supplemented with 10% fetal bovine serum (Invitrogen). The day prior to the PCSK9 assay, cells are seeded in 96-well collagen coated plates at 25,000 cells/well.
The compounds of the invention were stored at −20° C. until used. The test article compound was dissolved in 100% ethanol to a 50 mM stock solution. This was then diluted in FBS to a final concentration of 1 mM. This solution was placed in a sonicating water bath for 30 minutes. Subsequent dilutions were then made in FBS supplemented with an equivalent volume of ethanol and mixed by vortexing.
HepG2 cells were seeded onto a collagen coated 96-well plate (Becton Dickinson, Catalog no. 35-4407) the day prior to the assay, as described above. The next day, the cell medium was removed, washed once with 100 μL serum free DMEM to remove any residual PCSK9, and replaced with 90 μL of serum free DMEM. Ten microliters of each compound concentration prepared in FBS was then added. Each concentration of compound was tested in triplicate. The compound was incubated with the cells overnight for 16 hours. Following this incubation, 10 μL of AlamarBlue was added to each well and cells incubated for another 2 hours. The plates were then removed and AlamarBlue fluorescence was measured (excitation, 550 nm and […]) to assess cell viability. Cell culture supernatant was then diluted […] 1×RDSP Calibrator Diluent and PCSK9 ELISA was then performed with 50 μL of this diluted sample, as per the manufacturer's instructions. The ELISA was measured on a Victor X5 multilabel plate reader (PerkinElmer) at an absorbance of 450 nm with background correction measured at 550 nm (The PCSK9 Elisa kits can be purchased from R&D System, Catalog no. DPC900).
Alternatively, an IC50 could also be obtained when this type of assay was carried out using at least 6 different concentrations of the test compounds. Table 1 lists the IC50 values for the compounds tested in this assay.

SMILES	IC50
CC/C=C\C/C=C\C/C=C\C/C=C\C/C=C\CCCC(=O)N1CC[C@H](NC(=O)C2=CC(=O)C(C)(c3ccccc3)O2)C1 (stereo partly drawn) [VII-4, N—((S)-1-((5Z,8Z,11Z,14Z,17Z)-icosa-5,8,11,14,17-pentaenoyl)pyrrolidin-3-yl)-5-methyl-4-oxo-5-phenyl-4,5-dihydrofuran-2-carboxamide]	< 25 µM
CC/C=C\C/C=C\C/C=C\C/C=C\C/C=C\CCCC(=O)NCCNC(=O)c1ccncn1 [II-10, N-(2-((5Z,8Z,11Z,14Z,17Z)-icosa-5,8,11,14,17-pentaenamido)ethyl)pyrimidine-4-carboxamide]	> 50 µM
CC/C=C\C/C=C\C/C=C\C/C=C\C/C=C\CCCC(=O)NCCOCCOCCOC [III-2, (5Z,8Z,11Z,14Z,17Z)—N-(2-(2-(2-methoxyethoxy)ethoxy)ethyl)icosa-5,8,11,14,17-pentaenamide]	> 50 µM
CC/C=C\C/C=C\C/C=C\C/C=C\C/C=C\CCCC(=O)N(C)CC1CCN(C(=O)c2cccnc2)CC1 [Compound I-48, (5Z,8Z,11Z,14Z,17Z)—N-methyl-N-((1-nicotinoylpiperidin-4-yl)methyl)icosa-5,8,11,14,17-pentaenamide]	< 25 µM
CC/C=C\C/C=C\C/C=C\C/C=C\C/C=C\CCCC(=O)NC1CCN(C(=O)c2cccnc2)CC1 [Compound I-28, (5Z,8Z,11Z,14Z,17Z)—N-(1-nicotinoylpiperidin-4-yl)icosa-5,8,11,14,17-pentaenamide]	< 25 µM
CC/C=C\C/C=C\C/C=C\C/C=C\C/C=C\CCCC(=O)N1CCC(CNC(=O)C2=CC(=O)C(C)(c3ccccc3)O2)CC1 (stereo not shown) [VII-2, N-((1-((5Z,8Z,11Z,14Z,17Z)-icosa-5,8,11,14,17-pentaenoyl)piperidin-4-yl)methyl)-5-methyl-4-oxo-5-phenyl-4,5-dihydrofuran-2-carboxamide]	< 25 µM
CC/C=C\C/C=C\C/C=C\C/C=C\C/C=C\CCCC(=O)N1CCC(NC(=O)c2cccnc2)CC1 [Compound I-22, N-(1-((5Z,8Z,11Z,14Z,17Z)-icosa-5,8,11,14,17-pentaenoyl)piperidin-4-yl)nicotinamide]	< 25 µM
CC/C=C\C/C=C\C/C=C\C/C=C\C/C=C\CCCC(=O)NCCNC(=O)[C@@H]1CCCN1C(=O)c1cccnc1 [Compound I-27, (S)—N-(2-((5Z,8Z,11Z,14Z,17Z)-icosa-5,8,11,14,17-pentaenamido)ethyl)-1-nicotinoylpyrrolidine-2-carboxamide]	< 25 µM
CC/C=C\C/C=C\C/C=C\C/C=C\C/C=C\CCCC(=O)N1CCC(CNC(=O)c2cccnc2)CC1 [Compound I-31, N-((1-((5Z,8Z,11Z,14Z,17Z)-icosa-5,8,11,14,17-pentaenoyl)piperidin-4-yl)methyl)nicotinamide]	< 25 µM
CC/C=C\C/C=C\C/C=C\C/C=C\C/C=C\CCCC(=O)N1CCC(N(C)C(=O)C2=CC(=O)C(C)(c3ccccc3)O2)CC1 (stereo not shown) [VII-7, N-(1-((5Z,8Z,11Z,14Z,17Z)-icosa-5,8,11,14,17-pentaenoyl)piperidin-4-yl)-N,5-dimethyl-4-oxo-5-phenyl-4,5-dihydrofuran-2-carboxamide]	< 25 µM
CC/C=C\C/C=C\C/C=C\C/C=C\C/C=C\CCCC(=O)N1CC[C@H](N(C)C(=O)C2=CC(=O)C(C)(c3ccccc3)O2)C1 (stereo partly drawn) [VII-9, N—((S)-1-((5Z,8Z,11Z,14Z,17Z)-icosa-5,8,11,14,17-pentaenoyl)pyrrolidin-3-yl)-N,5-dimethyl-4-oxo-5-phenyl-4,5-dihydrofuran-2-carboxamide]	25 to 50 µM
CC/C=C\C/C=C\C/C=C\C/C=C\C/C=C\C/C=C\CCC(=O)NCCOCCOCCOC [III-1, (4Z,7Z,10Z,13Z,16Z,19Z)—N-(2-(2-(2-methoxyethoxy)ethoxy)ethyl)docosa-4,7,10,13,16,19-hexaenamide]	> 50 µM
CC/C=C\C/C=C\C/C=C\C/C=C\C/C=C\CCCC(=O)NCCNC(=O)c1ccccn1 [II-9, N-(2-((5Z,8Z,11Z,14Z,17Z)-icosa-5,8,11,14,17-pentaenamido)ethyl)picolinamide]	25 to 50 µM
CC/C=C\C/C=C\C/C=C\C/C=C\C/C=C\CCCC(=O)Nc1nc(C)ncc1CNC(=O)C(C)(C)Oc1ccc(C(=O)c2ccc(Cl)cc2)cc1 [VII-41, (5Z,8Z,11Z,14Z,17Z)—N-(5-((2-(4-(4-chlorobenzoyl)phenoxy)-2-methylpropanamido)methyl)-2-methylpyrimidin-4-yl)icosa-5,8,11,14,17-pentaenamide]	25 to 50 µM
CC/C=C\C/C=C\C/C=C\C/C=C\C/C=C\CCCC(=O)N1CC[C@H](NC(=O)c2cnc(C)c[n+]2[O-])C1 [VII-12, 2-(((S)-1-((5Z,8Z,11Z,14Z,17Z)-icosa-5,8,11,14,17-pentaenoyl)pyrrolidin-3-yl)carbamoyl)-5-methylpyrazine 1-oxide]	> 50 µM
CC/C=C\C/C=C\C/C=C\C/C=C\C/C=C\CCCC(=O)NCCNC(=O)c1ccc(=O)n(C)c1 [II-7, N-(2-((5Z,8Z,11Z,14Z,17Z)-icosa-5,8,11,14,17-pentaenamido)ethyl)-1-methyl-6-oxo-1,6-dihydropyridine-3-carboxamide]	> 50 µM
CC/C=C\C/C=C\C/C=C\C/C=C\C/C=C\CCCC(=O)NCCNC(=O)c1cnccn1 [II-11, N-(2-((5Z,8Z,11Z,14Z,17Z)-icosa-5,8,11,14,17-pentaenamido)ethyl)pyrazine-2-carboxamide]	> 50 µM
CC/C=C\C/C=C\C/C=C\C/C=C\C/C=C\CCCC(=O)N1CCN(C(=O)C(C)(C)Oc2ccc(C(=O)c3ccc(Cl)cc3)cc2)CC1 [VII-42, (5Z,8Z,11Z,14Z,17Z)-1-(4-(2-(4-(4-chlorobenzoyl)phenoxy)-2-methylpropanoyl)piperazin-1-yl)icosa-5,8,11,14,17-pentaen-1-one]	< 25 µM
CC/C=C\C/C=C\C/C=C\C/C=C\C/C=C\CCCC(=O)NCCNC(=O)c1ccccc1NC(=O)c1cccnc1 [Compound I-59, N-(2-((2-((5Z,8Z,11Z,14Z,17Z)-icosa-5,8,11,14,17-pentaenamido)ethyl)carbamoyl)phenyl)nicotinamide]	> 50 µM
